Data from patent publication US9695155B2, “Herbicidal substituted pyrimidinyloxy benzene compounds” (E. I. DU PONT DE NEMOURS AND COMPANY, priority 2013, dated 2017).

What was measured:
barnyardgrass [1] = assay: Test A preemergence; type: in vivo, Echinochloa crus-galli; conditions: for Plant response rating, Barnyardgrass: 125 g ai/ha, 0 to 100 scale where 0 is no effect and 100 is complete control; for Barnyardgrass plant response rating (0 to 100 scale): 31 g ai/ha
Procedure, shortened: (§1)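 Visual 0–100 rating (100 = complete control) taken about 10 d post-treatment relative to untreated checks. Preemergence: directed soil spray on sown loam/sand pots. Postemergence: seedlings 2–10 cm, 1–2 leaf. Non-phytotoxic solvent formulation with surfactant.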

kochia [2] = assay: Test A preemergence; type: in vivo, Kochia scoparia; conditions: for Plant response rating, Kochia: 125 g ai/ha, 0 to 100 scale where 0 is no effect and 100 is complete control; for Kochia plant response rating (0 to 100 scale): 31 g ai/ha
Procedure, shortened: as §1

ragweed [3] = assay: Test A preemergence; type: in vivo, Ambrosia elatior; conditions: for Plant response rating, Ragweed: 125 g ai/ha, 0 to 100 scale where 0 is no effect and 100 is complete control; for Ragweed plant response rating (0 to 100 scale): 31 g ai/ha
Procedure, shortened: as §1

Italian ryegrass [4] = assay: Test A preemergence; type: in vivo, Lolium multiflorum; conditions: for Plant response rating, Ryegrass, Italian: 125 g ai/ha, 0 to 100 scale where 0 is no effect and 100 is complete control; for Ryegrass, Italian plant response rating (0 to 100 scale): 31 g ai/ha
Source text: (§2) Seeds of plant species selected from barnyardgrass (Echinochloa crus-galli), kochia (Kochia scoparia), ragweed (common ragweed, Ambrosia elatior), Italian ryegrass (Lolium multiflorum), large (Lg) crabgrass (Digitaria sanguinalis), giant foxtail (Setaria faberii), morningglory (Ipomoea spp.), pigweed (Amaranthus retroflexus), velvetleaf (Abutilon theophrasti), wheat (Triticum aestivum), and corn (Zea mays) were planted into a blend of loam soil and sand and treated preemergence with a directed soil spray using test chemicals formulated in a non-phytotoxic solvent mixture which included a surfactant.
(§3) At the same time, plants selected from these crop and weed species and also blackgrass (Alopecurus myosuroides), and galium (catchweed bedstraw, Galium aparine) were planted in pots containing the same blend of loam soil and sand and treated with postemergence applications of test chemicals formulated in the same manner. Plants ranged in height from 2 to 10 cm and were in the one- to two-leaf stage for the postemergence treatment. Treated plants and untreated controls were maintained in a greenhouse for approximately 10 days, after which time all treated plants were compared to untreated controls and visually evaluated for injury. Plant response ratings, summarized in Table A, are based on a 0 to 100 scale where 0 is no effect and 100 is complete control. A dash (-) response means no test result.

giant foxtail [5] = assay: Test A preemergence; type: in vivo, Setaria faberii; conditions: for Plant response rating, Foxtail, Giant: 125 g ai/ha, 0 to 100 scale where 0 is no effect and 100 is complete control; for Foxtail, Giant plant response rating (0 to 100 scale): 31 g ai/ha
Procedure, shortened: as §1

pigweed [6] = assay: Test A preemergence; type: in vivo, Amaranthus retroflexus; conditions: for Plant response rating, Pigweed: 125 g ai/ha, 0 to 100 scale where 0 is no effect and 100 is complete control; for Pigweed plant response rating (0 to 100 scale): 31 g ai/ha
Procedure, shortened: as §1

barnyardgrass [7] = assay: Test A postemergence; type: in vivo, Echinochloa crus-galli
Procedure, shortened: as §1

kochia [8] = assay: Test A postemergence; type: in vivo, Kochia scoparia
Source text: as §2, §3

ragweed [9] = assay: Test A postemergence; type: in vivo, Ambrosia elatior
Source text: as §2, §3

Italian ryegrass [10] = assay: Test A postemergence; type: in vivo, Lolium multiflorum
Procedure, shortened: as §1

giant foxtail [11] = assay: Test A postemergence; type: in vivo, Setaria faberii
Procedure, shortened: as §1

pigweed [12] = assay: Test A postemergence; type: in vivo, Amaranthus retroflexus
Procedure, shortened: as §1

wheat = assay: Test A postemergence; type: in vivo, Triticum aestivum
Procedure, shortened: as §1

corn = assay: Test A postemergence; type: in vivo, Zea mays
Procedure, shortened: as §1

blackgrass = assay: Test A postemergence; type: in vivo, Alopecurus myosuroides
Source text: as §2, §3

galium = assay: Test A postemergence; type: in vivo, Galium aparine
Procedure, shortened: as §1

rice = assay: Test B flooded paddy test; type: in vivo, Oryza sativa; conditions: Flood, 250 g ai/ha; 0 to 100 scale where 0 is no effect and 100 is complete control
Procedure, shortened: (§4)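 Post-emergence paddy-water application at the 2-leaf stage, with 3 cm flood kept for the whole test. Response was judged visually relative to controls after 13 to 15 greenhouse days, 0 indicating no effect and 100 complete control.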

sedge, umbrella = assay: Test B flooded paddy test; type: in vivo, Cyperus difformis; conditions: Flood, 250 g ai/ha; 0 to 100 scale where 0 is no effect and 100 is complete control
Procedure, shortened: as §4

Heteranthera limosa = assay: Test B flooded paddy test; type: in vivo; conditions: Flood, 250 g ai/ha; 0 to 100 scale where 0 is no effect and 100 is complete control
Procedure, shortened: as §4

barnyardgrass [13] = assay: Test B flooded paddy test; type: in vivo, Echinochloa crus-galli; conditions: Flood, 250 g ai/ha; 0 to 100 scale where 0 is no effect and 100 is complete control
Procedure, shortened: as §4

[14] = 500 g ai/ha, 0 to 100 scale, 0 no effect, 100 complete control, approx. 10 days
[15] = 125 g ai/ha, 0 to 100 scale where 0 is no effect and 100 is complete control
[16] = 500 g ai/ha, 0 to 100 scale where 0 is no effect and 100 is complete control
[17] = 31 g ai/ha, 0 to 100 scale, 0 no effect, 100 complete control

Row | Structure (SMILES) | Plant response rating, Barnyardgrass (barnyardgrass [1]) | Plant response rating, Kochia (kochia [2]) | Plant response rating, Ragweed (ragweed [3]) | Plant response rating, Ryegrass, Italian (Italian ryegrass [4]) | Plant response rating, Foxtail, Giant (giant foxtail [5]) | Plant response rating, Pigweed (pigweed [6]) | Plant response rating, Barnyardgrass (barnyardgrass [7]; [15]) | Plant response rating, Kochia (kochia [8]; [15]) | Plant response rating, Foxtail, Giant (giant foxtail [11]; [15]) | Plant response rating, Corn (corn; [15]) | Plant response rating, Blackgrass (blackgrass; [15]) | Plant response rating, Galium (galium; [15]) | Plant response rating, Rice (rice) | Plant response rating, Sedge, Umbrella (sedge, umbrella) | Plant response rating, Ducksalad (Heteranthera limosa) | Plant response rating, Barnyardgrass (barnyardgrass [13]) | Barnyardgrass plant response rating (0 to 100 scale) (barnyardgrass [1]) | Kochia plant response rating (0 to 100 scale) (kochia [2]) | Ragweed plant response rating (0 to 100 scale) (ragweed [3]) | Ryegrass, Italian plant response rating (0 to 100 scale) (Italian ryegrass [4]) | other results
1 | N#Cc1cccc(Oc2ncc(I)cn2)c1-n1cc(I)cn1 [Compound 87] | 0 | 30 | 10 | 0 | 60 | 90 | 20 | 50 | 20 | 20 | 40 | 60 | 0 | 0 | 0 | 0 | – | – | – | – | Barnyardgrass plant response rating (barnyardgrass [1]; [14]): 10; Kochia plant response rating (kochia [2]; [14]): 60; Ragweed plant response rating (ragweed [3]; [14]): 20; Ryegrass, Italian plant response rating (Italian ryegrass [4]; [14]): 0; Foxtail, Giant plant response rating (giant foxtail [5]; [14]): 70; Pigweed plant response rating (pigweed [6]; [14]): 100; Plant response rating, Barnyardgrass (barnyardgrass [7]; [16]): 20; Plant response rating, Kochia (kochia [8]; [16]): 90; Plant response rating, Ragweed (ragweed [9]; [15]): 50; Plant response rating, Ragweed (ragweed [9]; [16]): 70; Plant response rating, Ryegrass, Italian (Italian ryegrass [10]; [15]): 30; Plant response rating, Ryegrass, Italian (Italian ryegrass [10]; [16]): 40; Plant response rating, Foxtail, Giant (giant foxtail [11]; [16]): 60; Plant response rating, Pigweed (pigweed [12]; [15]): 60; Plant response rating, Pigweed (pigweed [12]; [16]): 100; Plant response rating, Wheat (wheat; [15]): 0; Plant response rating, Wheat (wheat; [16]): 0; Plant response rating, Corn (corn; [16]): 20; Plant response rating, Blackgrass (blackgrass; [16]): 50; Plant response rating, Galium (galium; [16]): 90
2 | Clc1cnc(Oc2ccccc2-n2ccnc2)nc1 [Compound 100] | 0 | 0 | 0 | 0 | 0 | 0 | 0 | 0 | 0 | 0 | 0 | 10 | 0 | 0 | 0 | 15 | 0 | 0 | 0 | 0 | Foxtail, Giant plant response rating (0 to 100 scale) (giant foxtail [5]): 0; Pigweed plant response rating (0 to 100 scale) (pigweed [6]): 0; Plant response rating, Barnyardgrass (barnyardgrass [7]; [17]): 0; Plant response rating, Kochia (kochia [8]; [17]): 0; Plant response rating, Ragweed (ragweed [9]; [17]): 0; Plant response rating, Ryegrass, Italian (Italian ryegrass [10]; [17]): 0; Plant response rating, Foxtail, Giant (giant foxtail [11]; [17]): 0; Plant response rating, Pigweed (pigweed [12]; [17]): 0; Plant response rating, Wheat (wheat; [17]): 0; Plant response rating, Corn (corn; [17]): 0; Plant response rating, Blackgrass (blackgrass; [17]): 0; Plant response rating, Galium (galium; [17]): 0
3 | Fc1cnc(Oc2cccc(Cl)c2-n2cc(OC(F)F)cn2)nc1 [Compound 101] | 70 | 70 | 30 | 0 | 90 | 100 | 20 | 100 | 60 | 20 | 20 | 60 | 0 | 0 | 0 | 0 | 60 | 70 | 0 | 0 | Foxtail, Giant plant response rating (0 to 100 scale) (giant foxtail [5]): 70; Pigweed plant response rating (0 to 100 scale) (pigweed [6]): 90; Plant response rating, Barnyardgrass (barnyardgrass [7]; [17]): 20; Plant response rating, Kochia (kochia [8]; [17]): 70; Plant response rating, Ragweed (ragweed [9]; [17]): 50; Plant response rating, Ryegrass, Italian (Italian ryegrass [10]; [17]): 0; Plant response rating, Foxtail, Giant (giant foxtail [11]; [17]): 20; Plant response rating, Pigweed (pigweed [12]; [17]): 90; Plant response rating, Wheat (wheat; [17]): 20; Plant response rating, Corn (corn; [17]): 10; Plant response rating, Blackgrass (blackgrass; [17]): 20; Plant response rating, Galium (galium; [17]): 40
4 | FCCc1cn(-c2c(F)cccc2Oc2ncc(Cl)cn2)nn1 [Compound 108] | 70 | 70 | 80 | 30 | 90 | 100 | 60 | 90 | 70 | 30 | 80 | 90 | 35 | 80 | 85 | 0 | 10 | 40 | 70 | 0 | Foxtail, Giant plant response rating (0 to 100 scale) (giant foxtail [5]): 20; Pigweed plant response rating (0 to 100 scale) (pigweed [6]): 90; Plant response rating, Barnyardgrass (barnyardgrass [7]; [17]): 20; Plant response rating, Kochia (kochia [8]; [17]): 70; Plant response rating, Ragweed (ragweed [9]; [17]): 20; Plant response rating, Ryegrass, Italian (Italian ryegrass [10]; [17]): 0; Plant response rating, Foxtail, Giant (giant foxtail [11]; [17]): 20; Plant response rating, Pigweed (pigweed [12]; [17]): 50; Plant response rating, Wheat (wheat; [17]): 10; Plant response rating, Corn (corn; [17]): 20; Plant response rating, Blackgrass (blackgrass; [17]): 30; Plant response rating, Galium (galium; [17]): 70
5 | FC(F)(F)COc1cnn(-c2c(Cl)cccc2Oc2ncc(Cl)cn2)c1 [Compound 110] | 90 | 80 | 10 | 20 | 100 | 100 | 90 | 100 | 90 | 50 | 80 | 90 | 0 | 95 | 95 | 45 | 30 | 20 | 0 | 0 | Foxtail, Giant plant response rating (0 to 100 scale) (giant foxtail [5]): 100; Pigweed plant response rating (0 to 100 scale) (pigweed [6]): 100; Plant response rating, Barnyardgrass (barnyardgrass [7]; [17]): 10; Plant response rating, Kochia (kochia [8]; [17]): 90; Plant response rating, Ragweed (ragweed [9]; [17]): 10; Plant response rating, Ryegrass, Italian (Italian ryegrass [10]; [17]): 0; Plant response rating, Foxtail, Giant (giant foxtail [11]; [17]): 20; Plant response rating, Pigweed (pigweed [12]; [17]): 100; Plant response rating, Wheat (wheat; [17]): 0; Plant response rating, Corn (corn; [17]): 10; Plant response rating, Blackgrass (blackgrass; [17]): 20; Plant response rating, Galium (galium; [17]): 40
